Experimental data from patent EP0308983A2, “NMR imaging with Mn(II) coordination compositions” (priority 1987, dated 1989).
Where “and” joins values, the source holds several entries; their conditions need not be identical. Equal entries are not always repeated.

How the values were obtained:
[1] = Plasma clearance: plasma T₁ and T₂ times after injection; type: in vivo; conditions: rabbit, 0.1 mmole/kg; for plasma T₁ / plasma T₂: 0.15 T
Experimental: A dose of 0.1 mmole/kg of GdDTPA was injected into a rabbit and blood samples were drawn at 10 min intervals for 50 min. The blood was centrifuged, and the plasma T₁ and T₂ times were measured at 0.15 T with a RADX PROTON SPIN ANALYZER (Houston, TX).

[2] = Paramagnetic relaxation properties in water at 10 MHz (0.15T), RADX spin analyzer; type: physicochemical; conditions: 10 MHz (0.15T); for spin-lattice (T₁) relaxation value / spin-spin (T₂) relaxation value: 37°C, triplicate, mean +/- SD; for millimolar relaxivity for T₁ / millimolar relaxivity for T₂: in water; for millimolar relaxivity for T₁: calculated from T₁ and concentration; for millimolar relaxivity for T₂: calculated from T₂ and concentration
Experimental: The paramagnetic relaxation properties of [manganese(II)·(H₂O)₂·(L-alanine)₂]⁺²(Cl₂)⁻² in water were measured at 10 MHz (0.15T) with a spin analyzer (RADX; Houston, TX) at 37°C. After thermal equilibrium, the spin-lattice (T₁) and spin-spin (T₂) relaxation values were measured in triplicate.
The paramagnetic relaxation of the title compound in water was measured at 10 MHz (0.15T) with a spin analyzer (RADX; Houston, TX). After thermal equilibrium, the spin-lattice (T₁) and spin-spin (T₂) relaxation values were measured.
Relaxivity was measured at 10 MHz (0.15T) as described in Example 10.
The relaxivity of the title compound was performed at 0.15 T (10 MHz) with a RADX Spin Analyzer (Houston, TX) at 37°C.

[3] = Paramagnetic relaxation properties in human plasma at 37°C; type: physicochemical; conditions: for T₂ value / T₁ value / R₁ / R₂ / T₁ changed by (repeat measurement) / T₂ changed by (repeat measurement): 37°C; for T₁ value: triplicate; for T₁ changed by (repeat measurement) / T₂ changed by (repeat measurement): repeat measurement 80 minutes later; for T₂ relaxivity in plasma, fold greater than GdDTPA: versus GdDTPA; for T₁ relaxivity in plasma, fold greater than GdDTPA: versus gadolinium diethylenetriaminepentaacetic acid chelate (GdDTPA)

| Structure (SMILES) | millimolar relaxivity for T₁ [2] [mM⁻¹ s⁻¹] | millimolar relaxivity for T₂ [2] [mM⁻¹ s⁻¹] | R₁ [3] [mM⁻¹ s⁻¹] | R₂ [3] [mM⁻¹ s⁻¹] | T₁ changed by (repeat measurement) [3] | T₂ changed by (repeat measurement) [3] | T₂ relaxivity in plasma, fold greater than GdDTPA [3] [fold] | T₁ relaxivity in plasma, fold greater than GdDTPA [3] [fold] | T₂ value ([3]; 90 µM final concentration) [ms] | T₁ value ([3]; 90 µM final concentration) [ms] | other results |
| --- | --- | --- | --- | --- | --- | --- | --- | --- | --- | --- | --- |
| O=C([O-])CN(CCN(CC(=O)[O-])CC(=O)O)CCN(CC(=O)[O-])CC(=O)O.[Gd+3] [GdDTPA, gadolinium diethylenetriaminepentaacetic acid chelate, reference compound] |  |  |  |  |  |  |  |  |  |  | time for which the plasma T₁ was maintained below 300 [1]: 10 min; plasma T₁ ([1]; 0 min (baseline)): 1380 ms; plasma T₂ ([1]; 0 min (baseline)): 588 ms; plasma T₁ ([1]; 10 min): 259 ms and 269 ms; plasma T₂ ([1]; 10 min): 245 ms; plasma T₁ ([1]; 20 min): 349 ms; plasma T₂ ([1]; 20 min): 287 ms; plasma T₁ ([1]; 30 min): 348 ms; plasma T₂ ([1]; 30 min): 283 ms; plasma T₁ ([1]; 40 min): 352 ms; plasma T₂ ([1]; 40 min): 270 ms; plasma T₁ ([1]; 50 min): 340 ms; plasma T₂ ([1]; 50 min): 298 ms |
| CC(C)[C@H](N)C(=O)O.CC(C)[C@H](N)C(=O)O.O.O.[Cl-].[Cl-].[Mn+2] [Manganese(II)·(H₂O)₂·(L-valine)₂]⁺²(Cl₂)⁻²] | 9.12 | 39.7 | 43.5 | 56.9 | 4% | 4% | 11.9 | 9.1 |  |  | spin-lattice (T₁) relaxation value ([2]; 0.97 mM solution in water): 113 ± 10 ms; spin-spin (T₂) relaxation value ([2]; 0.97 mM solution in water): 26 ± 1 ms; T₂ value ([3]; 92 µM final concentration): 191 ± 8 ms; T₁ value ([3]; 92 µM final concentration): 250 ± 2 ms |
| C[C@H](N)C(=O)O.C[C@H](N)C(=O)O.O.O.[Cl-].[Cl-].[Mn+2] [[Manganese(II)·(H₂O)₂·(L-alanine)₂]⁺²(Cl₂)⁻²] | 9.81 | 39.3 | 44.7 | 56.9 | 3% | 1% | 11.9 | 9.3 |  |  | spin-lattice (T₁) relaxation value ([2]; 0.99 mM solution in water): 104 ± 9 ms; spin-spin (T₂) relaxation value ([2]; 0.99 mM solution in water): 26 ± 1 ms; T₂ value ([3]; 94 µM final concentration): 187 ± 3 ms; T₁ value ([3]; 94 µM final concentration): 238 ± 11 ms |
| N=C(N)NCCC[C@H](N)C(=O)O.N=C(N)NCCC[C@H](N)C(=O)O.O.O.[Cl-].[Cl-].[Mn+2] [[Manganese(II)·(H₂O)₂·(L-arginine)₂]⁺²(Cl₂)⁻²] | 2.96 | 10.6 | 24.8 | 37.9 | 8% | 22% | 7.9 | 5.2 |  |  | spin-lattice (T₁) relaxation value ([2]; 0.97 mM solution in water): 348 ± 7 ms; spin-spin (T₂) relaxation value ([2]; 0.97 mM solution in water): 97 ± 4 ms; T₂ value ([3]; 92 µM final concentration): 287 ± 11 ms; T₁ value ([3]; 92 µM final concentration): 439 ± 27 ms |
| NC(=O)CC[C@H](N)C(=O)O.NC(=O)CC[C@H](N)C(=O)O.O.O.[Cl-].[Cl-].[Mn+2] [[Manganese(II)·(H₂O)₂·(L-glutamine)₂]⁺²(Cl₂)⁻²] | 9.75 | 39.0 | 44.3 | 59.1 | 5% | did not change | 12.3 | 9.2 | 188 ± 8 | 251 ± 18 | spin-lattice (T₁) relaxation value ([2]; 0.95 mM solution in water): 108 ± 3 ms; spin-spin (T₂) relaxation value ([2]; 0.95 mM solution in water): 27 ± 0 ms |
| N[C@@H](Cc1c[nH]cn1)C(=O)O.N[C@@H](Cc1c[nH]cn1)C(=O)O.O.O.[Cl-].[Cl-].[Mn+2] [[Manganese(II)·(H₂O)₂·(L-histidine)₂]⁺²(Cl₂)⁻²] | 9.20 | 35.6 | 46.3 | 58.4 | 12% | 1% | 12.2 | 9.7 |  |  | spin-lattice (T₁) relaxation value ([2]; 0.97 mM solution in water): 112 ± 4 ms; spin-spin (T₂) relaxation value ([2]; 0.97 mM solution in water): 29 ± 1 ms; T₂ value ([3]; 92 µM final concentration): 186 ± 3 ms; T₁ value ([3]; 92 µM final concentration): 235 ± 2 ms |
| O.O.O=C(O)[C@@H]1C[C@@H](O)CN1.O=C(O)[C@@H]1C[C@@H](O)CN1.[Cl-].[Cl-].[Mn+2] [[Manganese(II)·(H₂O)₂·(L-hydroxyproline)₂]⁺²(Cl₂)⁻²] | 9.19 | 39.3 | 43.7 | 56.9 | did not change | 1% | 11.9 | 9.1 |  |  | spin-lattice (T₁) relaxation value ([2]; 0.98 mM solution in water): 111 ± 3 ms; spin-spin (T₂) relaxation value ([2]; 0.98 mM solution in water): 26 ± 1 ms; T₂ value ([3]; 93 µM final concentration): 189 ± 9 ms; T₁ value ([3]; 93 µM final concentration): 246 ± 13 ms |
| CC[C@H](C)[C@H](N)C(=O)O.CC[C@H](C)[C@H](N)C(=O)O.O.O.[Cl-].[Cl-].[Mn+2] [[Manganese(II)·(H₂O)₂·(L-isoleucine)₂]⁺²(Cl₂)⁻²] | 9.66 | 37.6 | 47.3 | 61.1 | 2% | 8% | 12.7 | 9.9 | 182 ± 5 | 235 ± 7 | spin-lattice (T₁) relaxation value ([2]; 0.99 mM solution in water): 109 ± 7 ms; spin-spin (T₂) relaxation value ([2]; 0.99 mM solution in water): 28 ± 1 ms |
| CC(C)C[C@H](N)C(=O)O.CC(C)C[C@H](N)C(=O)O.O.O.[Cl-].[Cl-].[Mn+2] [[Manganese(II)·(H₂O)₂·(L-leucine)₂]⁺²(Cl₂)⁻²] | 9.33 | 39.4 | 45.7 | 57.9 | 5% | 4% | 12.1 | 9.5 | 192 ± 0 | 243 ± 13 | spin-lattice (T₁) relaxation value ([2]; 0.94 mM solution in water): 114 ± 9 ms; spin-spin (T₂) relaxation value ([2]; 0.94 mM solution in water): 27 ± 1 ms |
| N[C@@H](Cc1ccccc1)C(=O)O.N[C@@H](Cc1ccccc1)C(=O)O.O.O.[Cl-].[Cl-].[Mn+2] [[Manganese(II)·(H₂O)₂·(L-phenylalanine)₂]⁺²(Cl₂)⁻²] | 9.84 | 39.0 | 46.3 | 59.7 | 2% | 2% | 12.4 | 9.65 | 186 ± 7 | 240 ± 10 | spin-lattice (T₁) relaxation value ([2]; 0.95 mM solution in water): 107 ± 5 ms; spin-spin (T₂) relaxation value ([2]; 0.95 mM solution in water): 27 ± 1 ms |
| N[C@@H](Cc1ccc(O)cc1)C(=O)O.N[C@@H](Cc1ccc(O)cc1)C(=O)O.O.O.[Cl-].[Cl-].[Mn+2] [[Manganese(II)·(H₂O)₂·(L-tyrosine)₂]⁺²(Cl₂)⁻²] | 9.94 | 38.7 | 49.3 | 71.6 | 5% | 9% | 14.8 | 10.3 |  |  | spin-lattice (T₁) relaxation value ([2]; 0.68 mM solution in water): 148 ± 1 ms; spin-spin (T₂) relaxation value ([2]; 0.68 mM solution in water): 38 ± 1 ms; T₂ value ([3]; 65 µM final concentration): 216 ± 2 ms; T₁ value ([3]; 65 µM final concentration): 312 ± 20 ms |
